Patent US20260001875A1, “AMINOPYRIMIDINYL DERIVATIVES FOR THE TREATMENT OF PARKINSON'S DISEASE” (UNIVERSITY OF DUNDEE, priority 2022, published 2026)
Values after ≈ are worked out from the molar mass of the structure shown. “Also recorded” adds a separate entry of the source. Where two headings read alike, the source gives them in different places.

Columns and labels:
Rab10 pThr73 = test: Rab10 Thr73 dephosphorylation in PBMC; format: cell-based, human; conditions: for EC50: Homo sapiens, PBMC
Description: PBMC cells were separated from human blood following existing protocol (dx.doi.org/10.17504/protocols.io.bnhxmb7n) and pelleted by centrifugation at 1000 g for 2 min. The supernatant was discarded and the PBMC pellet was resuspended in PBS containing 2% FBS for washing. The suspension was centrifuged at 1000 g for 2 min again and the PBMC pellet was resuspended in RPMI-1640 (Gibco) media supplemented with 10% FBS. The cells were then seeded into 6-well plates and treated with testing compounds at indicated concentrations and time period. After treatment, the cells were collected into 2-ml Eppendorf tube and centrifuged at 500 g for 2 min to pellet the cells, the supernatant was discarded, and the pellet was resuspended in 1 ml PBS and centrifuged at 500 g for 2 min again. The PBMC pellet was lysed with 60 μL of lysis buffer containing 50 mM Tris-HCl, pH 7.5, 1% (v/v) Triton X-100, 1 mM EGTA, 1 mM sodium orthovanadate, 50 mM NaF, 0.1% (v/v) 2-mercaptoethanol, 10 mM 2-glycerophosphate, 5 mM sodium pyrophosphate, 0.1 μg/ml mycrocystin-LR (Enzo Life Sciences), 270 mM sucrose, 0.5 mM DIFP (Sigma, Cat #D0879) in addition to Complete EDTA-free protease inhibitor cocktail (Sigma-Aldrich Cat #11836170001). DIFP is highly toxic and must be prepared in a fume hood to a stock solution of 0.5 M in isopropanol. The lysed cells were then centrifuged at 1500 g for 15 min at 0° C. The supernatants were collected for analysis by quantitative immunoblotting. For long term storage, the supernatant was flash frozen and stored at −80° C. Protein concentrations of cell lysates were determined using Pierce™ BCA Protein Assay Kit (ThermoFisher).
Cell lysates containing a quarter of a volume of 4× NuPAGE LDS sample buffer (NP0007) supplemented with 5% β-mercaptoethanol, were heated at 95° C. for 5 minutes. 15 to 20 μg of samples were loaded onto pre-cast 4-12% Bis-Tris midi 20W or 26W gels (Thermofisher Scientific®, Cat #WG1402BOX or WG1403BOX) and resolved at 130 V for 2 hours with NuPAGE MOPS SDS running buffer (Thermofisher Scientific® Cat #NP0001-02). Proteins were electrophoretically transferred onto a 0.45 μm nitrocellulose membrane (GE Healthcare, Amersham Protran® Supported 0.45 mm NC) at 90 V for 90 min on ice in transfer buffer (48 mM Tris base and 39 mM glycine supplemented with 20% methanol). The transferred membrane was blocked with 5% (w/v) skim milk powder dissolved in tris-buffered saline with tween (TBS-T) (50 mM Tris base, 150 mM sodium chloride (NaCl), 0.1% (v/v) Tween-20) at room temperature for 1 hour. Membranes were washed three times with TBS-T and were incubated in primary antibody overnight at 4° C. Prior to secondary antibody incubation, membranes were washed three times for 15 minutes with TBS-T. The membranes were incubated with secondary antibody for 1 hour at room temperature, protected from light. Thereafter, the membranes were washed with TBS-T three times with a 15-minute incubation for each wash, and protein bands were acquired via near-infrared fluorescent detection using the Odyssey CLx imaging system and quantified using Image Studio software. Graphs were generated using Graphpad Prism version 8 software.
Monoclonal rabbit LRRK2 Ser935 (Cat #UDD2) was purified by MRC PPU Reagents and Services at the University of Dundee and was used at a final concentration of 1 μg/ml. Total LRRK2 (C-terminus) was from Antibodies Inc./Neuromab (Cat #75-253) and was diluted 1:1000. […]

Caco-2 permeability = format: in vitro ADME; conditions: human, Caco-2
Caco-2 mono-cell layer = test: Caco-2 permeability; format: in vitro ADME
[1] = Stability in mouse plasma; format: in vitro ADME; conditions: read-out: T1/2 in mouse plasma
Solubility = format: physicochemical
VHL and LRRK2 = molecular target: T1, VHL and LRRK2 (Homo sapiens, UniProt P40337+Q5S007); test: NanoBRET ternary complex formation assay; format: binding
T1 construct: host or cells: HEK293 (digitonin-permeabilized), with purified labelled VCB added
Description: VCB was labeled with Bodipy 576/589 following protocol reported previously 76. Briefly, the VCB complex was mixed with Bodipy 576/589 NHS ester in a 20:1 molar ration and incubated at room temperature (protect from light) for 2 h in reaction buffer (0.1 M sodium phosphate, 75 mM KOAc, 2 mM DTT, pH 7.4). The reaction was quenched by diluting 10 times with reaction buffer and the unreacted dye was removed with a PD-10 MiniTrap desalting column (GE Healthcare) equilibrated with 100 mM BisTris pH 7.0, 100 mM NaCl, 1 mM DTT, pH 7. The eluted labeled protein solution was collected and concentrated with Pierce Concentrator, 3K MWCO (Thermo scientific).
Hek293 cells were transfected with LRRK2-NanoLuc vector (Promega, NV3401) for 24 h, harvested, and resuspended into OptiMEM media without phenol red (Life Technologies). The cells were then seeded into white 384-well plate (Corning3570) at a density of 6000 cells/well. […] Each well was added with NanoBRET NanoGlo Substrate (Promega, N2160) before performing the NanoBRET reading on PHERAstar (BMG LABTECH) plate reader equipped with a 450-nm bandpass filter (donor) and a 600-nm long pass filter (acceptor). […]

T1 sequence (Q5S007 whole entry, species assumed): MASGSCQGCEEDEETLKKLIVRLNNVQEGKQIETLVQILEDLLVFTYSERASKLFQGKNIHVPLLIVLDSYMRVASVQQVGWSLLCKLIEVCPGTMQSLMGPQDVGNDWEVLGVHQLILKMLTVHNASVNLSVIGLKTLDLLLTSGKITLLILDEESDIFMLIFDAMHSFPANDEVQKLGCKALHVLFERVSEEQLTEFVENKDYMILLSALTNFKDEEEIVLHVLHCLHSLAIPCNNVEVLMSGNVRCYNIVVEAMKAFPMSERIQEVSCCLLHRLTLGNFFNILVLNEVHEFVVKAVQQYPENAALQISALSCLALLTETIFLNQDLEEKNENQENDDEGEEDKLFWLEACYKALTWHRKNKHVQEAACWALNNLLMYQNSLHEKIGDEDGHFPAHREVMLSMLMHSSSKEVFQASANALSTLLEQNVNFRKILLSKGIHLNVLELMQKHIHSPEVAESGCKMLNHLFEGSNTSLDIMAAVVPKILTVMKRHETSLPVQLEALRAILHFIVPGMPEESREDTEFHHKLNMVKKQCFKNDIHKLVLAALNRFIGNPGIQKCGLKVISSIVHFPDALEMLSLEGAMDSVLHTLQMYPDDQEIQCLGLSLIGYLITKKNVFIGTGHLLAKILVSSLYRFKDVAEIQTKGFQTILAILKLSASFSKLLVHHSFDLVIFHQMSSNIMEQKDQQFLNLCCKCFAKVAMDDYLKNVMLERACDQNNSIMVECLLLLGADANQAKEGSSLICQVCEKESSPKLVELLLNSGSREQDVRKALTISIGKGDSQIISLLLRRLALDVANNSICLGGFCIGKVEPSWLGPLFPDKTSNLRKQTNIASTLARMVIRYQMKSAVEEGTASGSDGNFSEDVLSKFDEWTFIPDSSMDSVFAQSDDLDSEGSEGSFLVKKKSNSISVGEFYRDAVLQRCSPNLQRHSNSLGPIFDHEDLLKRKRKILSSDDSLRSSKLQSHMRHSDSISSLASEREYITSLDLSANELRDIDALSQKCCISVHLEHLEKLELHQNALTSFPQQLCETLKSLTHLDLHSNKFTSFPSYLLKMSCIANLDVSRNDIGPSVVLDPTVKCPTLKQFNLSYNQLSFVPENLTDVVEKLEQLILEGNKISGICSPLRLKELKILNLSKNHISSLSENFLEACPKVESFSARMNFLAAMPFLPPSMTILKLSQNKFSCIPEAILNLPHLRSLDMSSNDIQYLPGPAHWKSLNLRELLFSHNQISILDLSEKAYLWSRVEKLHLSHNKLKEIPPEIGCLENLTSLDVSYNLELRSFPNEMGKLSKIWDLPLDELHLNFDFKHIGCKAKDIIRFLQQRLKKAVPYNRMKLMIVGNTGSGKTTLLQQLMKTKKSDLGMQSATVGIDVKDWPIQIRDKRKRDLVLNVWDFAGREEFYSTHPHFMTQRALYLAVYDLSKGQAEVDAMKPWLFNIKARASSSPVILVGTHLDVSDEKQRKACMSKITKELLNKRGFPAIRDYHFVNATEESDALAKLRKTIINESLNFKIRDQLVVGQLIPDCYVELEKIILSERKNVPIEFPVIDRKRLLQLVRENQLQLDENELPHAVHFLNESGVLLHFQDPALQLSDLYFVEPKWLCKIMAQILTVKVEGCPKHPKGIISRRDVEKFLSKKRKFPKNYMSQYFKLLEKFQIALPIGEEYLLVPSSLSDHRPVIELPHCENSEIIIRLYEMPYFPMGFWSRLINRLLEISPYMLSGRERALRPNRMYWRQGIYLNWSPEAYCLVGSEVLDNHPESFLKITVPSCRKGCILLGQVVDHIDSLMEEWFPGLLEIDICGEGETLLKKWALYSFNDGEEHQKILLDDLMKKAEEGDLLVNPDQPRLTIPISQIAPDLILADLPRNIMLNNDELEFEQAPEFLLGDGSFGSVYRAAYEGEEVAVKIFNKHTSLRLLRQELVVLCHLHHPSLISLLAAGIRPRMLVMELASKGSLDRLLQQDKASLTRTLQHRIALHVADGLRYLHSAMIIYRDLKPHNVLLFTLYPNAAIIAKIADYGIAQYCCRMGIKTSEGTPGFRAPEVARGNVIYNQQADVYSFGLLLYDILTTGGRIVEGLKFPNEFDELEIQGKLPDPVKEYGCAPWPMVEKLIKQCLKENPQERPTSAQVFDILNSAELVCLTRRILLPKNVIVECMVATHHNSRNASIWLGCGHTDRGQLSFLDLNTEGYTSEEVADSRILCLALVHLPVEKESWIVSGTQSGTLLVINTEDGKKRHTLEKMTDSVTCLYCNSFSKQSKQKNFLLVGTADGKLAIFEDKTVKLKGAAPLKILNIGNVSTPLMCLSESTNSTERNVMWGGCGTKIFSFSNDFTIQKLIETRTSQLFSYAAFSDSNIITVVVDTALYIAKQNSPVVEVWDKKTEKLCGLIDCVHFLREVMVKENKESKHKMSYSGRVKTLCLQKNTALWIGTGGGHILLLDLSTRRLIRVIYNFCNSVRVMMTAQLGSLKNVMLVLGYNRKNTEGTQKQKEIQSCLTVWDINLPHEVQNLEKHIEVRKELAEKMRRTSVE
T1 sequence (P40337 54-213 limits assumed, species assumed): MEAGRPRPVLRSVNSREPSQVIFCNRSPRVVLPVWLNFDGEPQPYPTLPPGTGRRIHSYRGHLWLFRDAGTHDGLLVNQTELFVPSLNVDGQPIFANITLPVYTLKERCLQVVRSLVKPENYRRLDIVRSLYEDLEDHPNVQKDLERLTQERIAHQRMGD
T1 sequence (Q15369 17-112 partner limits assumed, species assumed): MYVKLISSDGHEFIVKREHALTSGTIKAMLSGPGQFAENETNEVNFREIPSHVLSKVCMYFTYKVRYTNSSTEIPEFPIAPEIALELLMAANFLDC
T1 sequence (Q15370 1-104 partner limits assumed, species assumed): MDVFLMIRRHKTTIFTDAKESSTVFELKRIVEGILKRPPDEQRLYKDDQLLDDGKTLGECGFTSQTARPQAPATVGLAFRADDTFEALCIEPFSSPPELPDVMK

Row | EC50 (Rab10 pThr73; 4 h treatment) | SMILES | EC50 (Rab10 pThr73; 24 h treatment) | T1/2 of Rab10 dephosphorylation in PBMC (Rab10 pThr73; time course at 300 nM) | Papp A→B (Caco-2 permeability; A − B) | Papp B→A (Caco-2 permeability; B − A) | penetration of Caco-2 mono-cell layer (in words) (Caco-2 mono-cell layer) | half-life [1] | solubility (Solubility; FeSSIF (fed state simulated intestinal fluid), fessif, Fed State Simulated Intestinal Fluid pH 5.8, read-out: Solubility in FeSSIF (pH 5.8)) | solubility (Solubility; aqueous buffer, PBS pH 7.4, read-out: Solubility in PBS (pH 7.4)) | ternary complex formation with VHL and LRRK2 (in words) (VHL and LRRK2) | LRRK2 Ser935 and Rab10 Thr73 dephosphorylation in PBMC (in words) (Rab10 pThr73; time course at 300 nM)
1 |  | CNc1nc(Nc2ccc(C(=O)N3CCN(C[C@H]4CC[C@H](CSC(C)(C)[C@H](NC(=O)C5(F)CC5)C(=O)N5C[C@H](O)CC5C(=O)NCc5ccc(-c6scnc6C)cc5)CC4)CC3)cc2OC)ncc1Cl (stereo partly drawn) [XL01126, (2S,4R)-1-((R)-3-((((1R,4R)-4-((4-(4-((5-chloro-4-(methylamino)pyrimidin-2-yl)amino)-3-methoxybenzoyl)piperazin-1-yl)methyl)cyclohexyl)methyl)thio)-2-(1-fluorocyclopropane-1-carboxamido)-3-methylbutanoyl)-4-hydroxy-N-(4-(4-methylthiazol-5-yl)benzyl)pyrrolidine-2-carboxamide] | 20 nM | 0.38 h | < 0.74 ×10⁻⁶ cm/s | < 1.43 ×10⁻⁶ cm/s | can penetrant Caco-2 mono-cell layer; also recorded: can penetrate Caco-2 mono-cell layer | 1.8 h | 26.1 µM (≈ 26.6 µg/mL) | 0.55 µM (≈ 0.561 µg/mL) | highest ternary complex | 
2 | > 3000 nM | CNc1nc(Nc2ccc(C(=O)N3CCN(C[C@H]4CC[C@H](CSC(C)(C)[C@H](NC(=O)C5(F)CC5)C(=O)N5C[C@@H](O)CC5C(=O)NCc5ccc(-c6scnc6C)cc5)CC4)CC3)cc2OC)ncc1Cl (stereo partly drawn) [Cis-XL01126, (2S,4S)-1-((R)-3-((((1r,4R)-4-((4-(4-((5-chloro-4-(methylamino)pyrimidin-2-yl)amino)-3-methoxybenzoyl)piperazin-1-yl)methyl)cyclohexyl)methyl)thio)-2-(1-fluorocyclopropane-1-carboxamido)-3-methylbutanoyl)-4-hydroxy-N-(4-(4-methylthiazol-5-yl)benzyl)pyrrolidine-2-carboxamide] | 705 nM |  |  |  |  |  |  |  | cannot form ternary complex | barely inhibits the phosphorylation; also recorded: induced little LRRK2 and Rab10 dephosphorylation
